Square brackets hold non-standard residues; d marks the D form. Peptide text beside a SMILES is read from it.
Experiment: Peptide stability in 50% human serum (RP-HPLC time course)
Assay type: in vitro ADME
Details: 50% aqueous human serum, 37 °C, time points 0, 30 (35), 120 min, RP-HPLC peak area at 220 nm, triplicate
Description: D-amino acids are more resistant to protease degradation. In order to verify the effect of D-amino acid replacement on QK stability in serum, we performed a time-course analysis. Peptides were incubated with 50% diluted human serum and analyzed by RP-HPLC at three different times (0′, 35′ and 120′). The area of the chromatographic peak corresponding to the entire peptide was determined (Figure 6). Overall, peptide QK presents fairly good stability in 50% serum, as almost the 50% is still present after […] of incubation.
Figure 6 Analysis of peptide stability in 50% human serum. […] Data are reported as means of a triplicate experiment.
Briefly, 20 µL of peptide (10 mg/mL stock solution in H2O) were added to 200 µL of 50% aqueous solution of human serum (Sigma-Aldrich) (previously centrifuged at 10,000 rpm for 10 min at 4 °C) and the mixture was incubated at 37 °C. At each time point (0, 30, 120 min), an aliquot of 6 µL was diluted in a ten times volume of H2O and analyzed by RP-HPLC on an Atlantis C18-column (Waters, 5 µm, 4.6 mm × 150 mm) using a linear aqueous acetonitrile gradient containing TFA (0.1%, v/v). Initial condition 5% B, 5−5% B in 5 min, 5−40% B in 27 min, 40−100% B in 5 min, and flow rate 1 mL/min (B = acetonitrile 0.1% TFA). Peptides were detected by recording the absorbance at 220 nm and quantified by their peak areas relative to the initial peak areas (0 min). […]

In the case of `CC[C@H](C)[C@H](NC(=O)CNC(=O)[C@H](CCCCN)NC(=O)[C@H](Cc1ccc(O)cc1)NC(=O)[C@H](CCCCN)NC(=O)[C@H](CC(C)C)NC(=O)[C@H](CCC(N)=O)NC(=O)[C@H](Cc1ccc(O)cc1)NC(=O)[C@H](CC(C)C)NC(=O)[C@H](CCC(=O)O)NC(=O)[C@H](CCC(N)=O)NC(=O)[C@H](Cc1c[nH]c2ccccc12)NC(=O)[C@H](NC(=O)[C@@H](CC(C)C)NC(=O)[C@@H](CCCCN)NC(C)=O)[C@H](C)O)C(N)=O` [D-QK, Ac-^DLys-^DLeu-^DThr-Trp-Gln-Glu-Leu-Tyr-Gln-Leu-Lys-Tyr-Lys-Gly-Ile-NH2] (Ac-[dK][dL][dT]WQELYQLKYKGI-NH2), the “effect of the N-terminal D-amino acids on stability in human serum (versus QK)” value is reported as “unaffected”.
